≈ marks a conversion by molar mass, not a printed value. Like-named read-outs stand apart in the source and are kept apart here.
Experiments:
NIH/3T3 cells = test: Cytotoxicity on NIH/3T3 healthy cell line; assay type: cell-based; conditions: Mus musculus, NIH3T3, 24 h incubation
Experimental: NIH/3T3 cells were incubated in Dulbecco’s modified Eagle’s medium (DMEM) (Sigma-Aldrich, St. Louis, MO), added with fetal calf serum, penicillin (100 IU/mL), streptomycin ([…]), and 7.5% NaHCO3 at 37 °C in a humidified atmosphere of 95% air and 5% CO2. NIH/3T3 cells were seeded into the 96-well plates at a density of 1 × 10^4 cells. After 24 h of incubating period, the culture media were removed, and test compounds were added. After 24 h of incubation period, colorimetric measurements were performed by a microplate reader (Biotek) at 540 nm. Inhibition % at all concentrations was determined using the formula below, and the IC50 values were calculated from a dose–response curve obtained by plotting the percentage inhibition versus the log concentration with the use of Microsoft Excel 2013.

C. glabrata ATCC 90030 = test: Anticandidal broth microdilution (EUCAST EDef 7.1), MIC90; assay type: cell-based, Candida glabrata; conditions: Nakaseomyces glabratus, ATCC90030, C. glabrata ATCC 90030
Description: (§1) E. coli (ATCC 35218), E. coli (ATCC 25922), S. aureus (ATCC 6538), methicillin-resistant S. aureus (MRSA) (clinical isolate), S. typhimurium (ATCC 13311), and K. pneumoniae (NCTC 9633) cells for antibacterial effect, and C. albicans (ATCC 24433), C. glabrata (ATCC 90030), C. krusei (ATCC 6258), and C. parapsilosis (ATCC 22019) for the antifungal effect of the final compounds were used to determine the MIC90 values. The broth microdilution procedure specified in the M07-A9 document of the Clinical and Laboratory Standards Institute (CLSI) was used for antibacterial study,[55] and the EDef 7.1 document published by EUCAST was used for the antifungal study.[56] For both activity studies, the detailed procedures were explained in previous studies.[57],[58]

[1] = tested on: Salmonella typhimurium ATCC 13311; test: Antibacterial broth microdilution (CLSI M07-A9), MIC90; assay type: cell-based; conditions: Salmonella enterica; S. typhimurium ATCC 13311
Description: (§2) The broth microdilution procedure specified in the M07-A9 document of the Clinical and Laboratory Standards Institute (CLSI) was used for antibacterial study,[55] and the EDef 7.1 document published by EUCAST was used for the antifungal study.[56] For both activity studies, the detailed procedures were explained in previous studies.[57],[58]

[2] = tested on: Staphylococcus aureus ATCC 6538; test: as above; assay type: cell-based; conditions: S. aureus ATCC 6538
Description: as §2

[3] = tested on: Klebsiella pneumoniae NCTC 9633; test: as above; assay type: cell-based; conditions: NCTC9633, K. pneumoniae NCTC 9633
Description: as §2

E. coli ATCC 25922 = test: as above; assay type: cell-based; conditions: Escherichia coli, ATCC25922
Description: as §2

[4] = tested on: Escherichia coli ATCC 35218; test: as above; assay type: cell-based; conditions: Escherichia coli, ATCC35218; E. coli ATCC 35218
Description: as §2

[5] = tested on: methicillin-resistant S. aureus (MRSA) (clinical isolate); test: as above; assay type: cell-based; conditions: Staphylococcus aureus
Description: as §2

[6] = target: T1, Lanosterol 14α-demethylase (LMD, CYP51A1) (Candida glabrata, UniProt P50859); test: LDM (CYP51A1) inhibition by LC-MS-MS quantification of ergosterol level; assay type: cell-based; conditions: for inhibition at 0.06 µg/mL / inhibition at 0.24 µg/mL / inhibition at 0.98 µg/mL: read-out: CYP51A1 Inhibition%
T1 construct: tested against Candida strains via the determination of ergosterol production; endogenous in cells; host or cells: C. glabrata (ATCC 90030)
Experimental: (§3) The activity of the target compounds was tested against Candida strains via the determination of ergosterol production.
(§4) Ergosterol level was determined using the extract of total sterols from C. albicans (and its other species) following the method described by Breivik and Owades.[63] Quantification of the ergosterol level in this extract was carried out by the recently described method.[58],[64]−[66] According to these described studies, in the current work, compounds 4b, 4e, 4f, and 4h–m were undertaken to investigate their action mechanism. Thus, the LC-MS-MS-based method that quantifies the ergosterol level was applied. […]. Ergosterol quantity in negative control samples was regarded as 100%. All concentrations were analyzed in quadruplicate, and the results were expressed as mean ± standard deviation (SD).

[7] = tested on: Candida albicans ATCC 24433; test: Anticandidal broth microdilution (EUCAST EDef 7.1), MIC90; assay type: cell-based
Description: as §1

[8] = tested on: Candida parapsilosis ATCC 22019; test: as above; assay type: cell-based
Description: as §1

Candida krusei ATCC 6258 = test: as above; assay type: cell-based
Description: as §1

[9] = tested on: Lanosterol 14α-demethylase (LMD, CYP51A1); test: LDM (CYP51A1) inhibition by LC-MS-MS quantification of ergosterol level; assay type: cell-based
Experimental: as §3, §4

[10] = Staphylococcus aureus, ATCC6538, read-out: MIC90
[11] = Candida albicans, ATCC24433, C. albicans ATCC 24433, read-out: MIC90
[12] = Lodderomyces parapsilosis, ATCC22019, C. parapsilosis ATCC 22019, read-out: MIC90
[13] = Pichia kudriavzevii, ATCC6258, C. krusei ATCC 6258, read-out: MIC90

T1 sequence (P50859 whole entry): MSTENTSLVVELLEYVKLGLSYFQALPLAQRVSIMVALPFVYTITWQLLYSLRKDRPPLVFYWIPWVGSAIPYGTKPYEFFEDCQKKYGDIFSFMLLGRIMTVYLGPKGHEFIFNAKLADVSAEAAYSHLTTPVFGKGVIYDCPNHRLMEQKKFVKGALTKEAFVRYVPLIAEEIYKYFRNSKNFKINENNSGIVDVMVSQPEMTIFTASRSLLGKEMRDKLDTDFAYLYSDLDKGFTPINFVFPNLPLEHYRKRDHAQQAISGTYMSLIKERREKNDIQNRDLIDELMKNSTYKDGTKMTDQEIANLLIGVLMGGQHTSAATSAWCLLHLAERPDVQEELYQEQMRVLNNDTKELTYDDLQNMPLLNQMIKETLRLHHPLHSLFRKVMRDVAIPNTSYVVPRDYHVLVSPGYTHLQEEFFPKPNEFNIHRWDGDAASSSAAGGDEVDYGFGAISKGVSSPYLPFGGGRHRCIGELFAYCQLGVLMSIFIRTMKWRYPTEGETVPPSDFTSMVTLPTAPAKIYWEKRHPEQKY

melting point	MIC90 [1]	MIC90 [2, 10]	MIC90 [3]	MIC90 (E. coli ATCC 25922)	MIC90 [4]	MIC90 [5]	Structure (SMILES)	IC50 (NIH/3T3 cells)	MIC90 (C. glabrata ATCC 90030)	inhibition at 0.06 µg/mL ([6]; C. glabrata, 0.06 μg/mL)	inhibition at 0.24 µg/mL ([6]; C. glabrata, 0.24 μg/mL)	inhibition at 0.98 µg/mL ([6]; C. glabrata, 0.98 μg/mL)	MIC90 [7, 11]	MIC90 [8, 12]	MIC90 (Candida krusei ATCC 6258; [13])	CYP51A1 Inhibition% ([9]; C. krusei, 0.06 μg/mL)	CYP51A1 Inhibition% ([9]; C. krusei, 0.24 μg/mL)	CYP51A1 Inhibition% ([9]; C. krusei, 0.98 μg/mL)	CYP51A1 Inhibition% ([9]; C. parapsilosis, 0.06 μg/mL)	CYP51A1 Inhibition% ([9]; C. parapsilosis, 0.24 μg/mL)	further results
194 to 196 °C	> 1000 µg/mL	> 1000 µg/mL	> 1000 µg/mL	> 1000 µg/mL	> 1000 µg/mL	> 1000 µg/mL	COc1ccc2nc(Cl)c(C=NNc3nc(-c4ccc(C)cc4)cs3)cc2c1 [4f]	> 1000 µM	< 0.06 µg/mL	42.1 ± 1.56%	53.8 ± 2.39%	65.1 ± 1.68%	> 1000 µg/mL	3.91 µg/mL (≈ 9.56 µM)	3.91 µg/mL (≈ 9.56 µM)						effect on ergosterol production / LMD enzyme inhibition (in words) ([6]; C. glabrata): showed their anticandidal activity via LMD enzyme inhibition
199 to 202 °C	> 1000 µg/mL	62.5 µg/mL (≈ 140 µM)	> 1000 µg/mL	> 1000 µg/mL	> 1000 µg/mL	> 1000 µg/mL	COc1ccc2nc(Cl)c(/C=N/Nc3nc(-c4ccc5ccccc5c4)cs3)cc2c1 [4n]	> 1000 µM	1.95 µg/mL (≈ 4.38 µM)				3.91 µg/mL (≈ 8.79 µM)	1.95 µg/mL (≈ 4.38 µM)	1.95 µg/mL (≈ 4.38 µM)						
	31.2 µg/mL (≈ 96.7 µM)	≤ 1.95 µg/mL	31.2 µg/mL (≈ 96.7 µM)	15.6 µg/mL (≈ 48.4 µM)	31.2 µg/mL (≈ 96.7 µM)	31.2 µg/mL (≈ 96.7 µM)	O=C(N[C@H](CO)[C@H](O)c1ccc([N+](=O)[O-])cc1)C(Cl)Cl [chloramphenicol, reference compound]														MIC90 ([2]; listed as RF-1): ≤1.95 µg/mL
							OC(Cn1cncn1)(Cn1cncn1)c1ccc(F)cc1F [fluconazole, reference compound]									43.378 ± 0.937%	60.132 ± 2.042%	72.523 ± 1.961%	49.579 ± 1.733%	61.533 ± 1.282%	inhibition at 0.06 µg/mL [6]: 46.3 ± 0.936%; inhibition at 0.24 µg/mL [6]: 63.7 ± 2.19%; inhibition at 0.98 µg/mL [6]: 70.1 ± 2.05%; CYP51A1 Inhibition% ([9]; C. parapsilosis, 0.98 μg/mL): 73.204 ± 2.031%
							CC(=O)N1CCN(c2ccc(OCC3COC(Cn4ccnc4)(c4ccc(Cl)cc4Cl)O3)cc2)CC1 (stereo not shown) [ketoconazole, reference compound]		0.24 µg/mL (≈ 0.452 µM)	50.4 ± 1.16%	61.9 ± 1.83%	72.8 ± 2.87%	< 0.06 µg/mL	< 0.06 µg/mL	< 0.06 µg/mL	52.865 ± 1.662%	60.630 ± 2.875%	75.647 ± 2.749%	55.348 ± 1.091%	63.419 ± 2.074%	CYP51A1 Inhibition% ([9]; C. parapsilosis, 0.98 μg/mL): 71.864 ± 2.229%; MIC90 ([7]; C. albicans ATCC 24433, listed as Rf): ≤0.06 µg/mL; MIC90 ([8]; C. parapsilosis ATCC 22019, listed as Rf): ≤0.06 µg/mL; MIC90 (Candida krusei ATCC 6258; C. krusei ATCC 6258, listed as Rf): ≤0.06 µg/mL

Structure (SMILES)	melting point	MIC90 [1]	MIC90 [2, 10]	MIC90 [3]	MIC90 (E. coli ATCC 25922)	MIC90 [4]	MIC90 [5]	IC50 (NIH/3T3 cells)	MIC90 (C. glabrata ATCC 90030)	inhibition at 0.06 µg/mL ([6]; C. glabrata, 0.06 μg/mL)	inhibition at 0.24 µg/mL ([6]; C. glabrata, 0.24 μg/mL)	inhibition at 0.98 µg/mL ([6]; C. glabrata, 0.98 μg/mL)	MIC90 [7, 11]	MIC90 [8, 12]	MIC90 (Candida krusei ATCC 6258; [13])	CYP51A1 Inhibition% ([9]; C. krusei, 0.06 μg/mL)	CYP51A1 Inhibition% ([9]; C. krusei, 0.24 μg/mL)	CYP51A1 Inhibition% ([9]; C. krusei, 0.98 μg/mL)	CYP51A1 Inhibition% ([9]; C. parapsilosis, 0.06 μg/mL)	CYP51A1 Inhibition% ([9]; C. parapsilosis, 0.24 μg/mL)	further results
COc1ccc2nc(Cl)c(C=NNc3nc(-c4cccc(Cl)c4)cs3)cc2c1 [4h]	200 to 202 °C	> 1000 µg/mL	> 1000 µg/mL	> 1000 µg/mL	> 1000 µg/mL	> 1000 µg/mL	> 1000 µg/mL	14.5 ± 0.57 µM	31.2 µg/mL (≈ 72.8 µM)				> 1000 µg/mL	125 µg/mL (≈ 291 µM)	≤ 0.06 µg/mL	45.530 ± 0.961%	60.184 ± 1.985%	67.651 ± 1.736%			effect on ergosterol production / LMD enzyme inhibition (in words) ([9]; C. krusei): showed their anticandidal activity via LMD enzyme inhibition
